Laboratory results: patent publication US9340574B2, “Inhibitors of protein tyrosine phosphatases” (Indiana University Research and Technology Corporation, priority 2012, dated 2016)

How the values were obtained:
PTP1B = PTP1B (Homo sapiens (Human), UniProt P18031); experiment: pNPP hydrolysis enzyme assay, PTP1B; type: biochemical
Protocol: (§1) Enzyme kinetic assay. PTP activity was assayed using p-nitrophenyl phosphate (pNPP) as a substrate in 3,3-dimethylglutarate buffer (50 mM 3,3-dimethylglutarate, pH 7.0, 1 mM EDTA, 150 mM NaCl, 2 mM DTT, 0.1 mg/mL BSA) at 25° C. The assays were performed in 96-well plates. Normally, to determine the IC50 values, the reaction was initiated by the addition of enzyme (final concentration at 10 nM) to a reaction mixture (0.2 mL) containing 2 mM (Km for the substrate) pNPP with various concentrations of inhibitors. The reaction rate was measured using a SpectraMax Plus 384 Microplate Spectrophotometer (Molecular Devices). To determine the mode of inhibition, the reactions were initiated by the addition of PTP-MEG2 to the reaction mixtures (0.2 mL) containing various concentrations of pNPP with different concentrations of the inhibitor 7. Data were fitted using SigmaPlot Enzyme Kinetics Module (Systat Software, Inc.).

PTP-MEG2 = PTP-MEG2 (Homo sapiens (Human), UniProt P43378); experiment: pNPP hydrolysis enzyme assay, PTP-MEG2; type: biochemical; details: for IC50: pNPP substrate, pH 7.0, 25° C., read-out: IC50 for PTP-MEG2
Sequence of PTP-MEG2 (P43378 277-582): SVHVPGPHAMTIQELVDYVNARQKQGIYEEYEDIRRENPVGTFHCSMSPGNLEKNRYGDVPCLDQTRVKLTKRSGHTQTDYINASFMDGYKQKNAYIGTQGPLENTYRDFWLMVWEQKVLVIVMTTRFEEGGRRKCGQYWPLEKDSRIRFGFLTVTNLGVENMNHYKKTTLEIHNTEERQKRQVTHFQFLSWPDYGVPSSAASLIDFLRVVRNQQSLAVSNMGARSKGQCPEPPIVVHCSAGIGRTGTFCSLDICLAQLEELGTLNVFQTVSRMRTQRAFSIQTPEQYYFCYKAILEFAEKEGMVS
Protocol: as §1
PTP-MEG2 Overexpression, and Purification. The expression vector containing residues 277-582 of PTP-MEG2 catalytic domain was provided by Stefan Knapp at the University of Oxford. For protein expression, transformed cells were grown at 37° C. in Luria broth (LB) containing […] ampicillin for 4 h to an OD600 nm @0.6, and then induced for overnight at 18° C. with 0.4 mM IPTG. Cells were harvested by centrifugation (6500 rpm for 15 min at 4° C.), and the cell pellets from 1.5 L LB medium were suspended in 30 mL of ice-cold lysis buffer consisting of 5 mM imidazole, 500 mM NaCl, 20 mM Tris-HCl (pH 7.9), 0.05 mg/mL trypsin inhibitor and 0.1 mM PMSF. The suspensions were passed twice through a French Press at 1200 psi, and the cell lysates were centrifuged at 4° C. for 30 min at 16,000 rpm. The supernatants were mixed with 2 mL Ni-NTA Agarose (His*Bind Resin) (Qiagen) at 4° C. for 1 hour, then transferred mixture to an empty column. The column was washed by 200 mL binding buffer (5 mM imidazole, 500 mM NaCl, 20 mM Tris-HCl (pH 7.9)), followed by 20 mL wash buffer (20 mM imidazole, 500 mM NaCl, 20 mM Tris-HCl (pH 7.9)), and then eluted with 20 mL elution buffer (200 mM imidazole, 500 mM NaCl, 20 mM Tris-HCl (pH 7.9), 5 mM DTT). The elution was dialyzed for 6 h at 4° C. against 1 L buffer A (50 mM NaCl, 20 mM MES (pH6.0), 1 mM EDTA), and then loaded onto a Mono S column equilibrated at 4° C. with buffer A. The column was washed with 10 ml buffer A and then eluted with a 40 mL linear gradient of 0 to 1M NaCl in buffer A. The PTP-MEG2 was eluted at 0.35 M NaCl. The column fractions were analyzed by measuring the absorbance at 280 nm and by carrying out SDS-PAGE analysis. The fractions were combined, dialyzed against 1 L buffer A and concentrated at 4° C. to 8 mg/mL using an Amicon concentrator and then stored at −80° C.

Sequence of PTP1B (P18031 whole entry, species assumed): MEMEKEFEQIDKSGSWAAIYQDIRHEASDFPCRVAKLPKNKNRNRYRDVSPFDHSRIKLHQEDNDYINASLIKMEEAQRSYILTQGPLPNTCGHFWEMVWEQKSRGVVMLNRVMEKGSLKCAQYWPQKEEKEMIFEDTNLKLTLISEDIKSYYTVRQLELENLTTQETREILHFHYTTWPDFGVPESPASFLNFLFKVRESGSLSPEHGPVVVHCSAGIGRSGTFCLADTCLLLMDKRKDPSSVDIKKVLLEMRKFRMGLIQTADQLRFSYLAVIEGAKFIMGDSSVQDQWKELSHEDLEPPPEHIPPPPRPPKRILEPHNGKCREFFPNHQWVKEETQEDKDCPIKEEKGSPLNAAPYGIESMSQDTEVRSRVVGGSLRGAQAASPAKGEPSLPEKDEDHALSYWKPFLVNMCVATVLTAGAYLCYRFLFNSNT

Row | IC50 (PTP1B; pNPP substrate) | selectivity for PTP-MEG2 over PTP1B (PTP1B; ratio of IC50 values) | improvement in potency / binding affinity for PTP-MEG2 over the preceding lead (PTP-MEG2; Compound 5 vs Compound 3, Compound 7 vs Compound 5) | Compound | IC50 (PTP-MEG2)
1 | 3400 ± 80 nM | 12.6 fold | 3.3 fold | Cc1ccc(C(=O)NC(Cc2ccc(C(F)(F)P(=O)(O)O)cc2)C(=O)NC(CCCNC(=O)c2cccc(I)c2)C(N)=O)cc1Br (centres unmarked) [Compound 5] | 270 ± 70 nM
2 | – | – | – | CC(=O)NC(Cc1ccc(C(F)(F)P(=O)(O)O)cc1)C(=O)NC(CCCNC(=O)c1cccc(I)c1)C(N)=O (centres unmarked) [Compound 3] | 900 ± 20 nM
